Measured values: PubChem BioAssay (NCI)
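Values below derive from 48-hour exposures of cells grown in 96-well plates, with endpoints linearly interpolated between the two concentrations bracketing the appropriate inhibition level. TGI denotes the concentration required for complete inhibition of growth.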

Columns and labels:
Assay in all cases: DTP human tumour cell line panel, 48 h
HCT-116 colon = tested on: HCT-116 colon
DLD-1 colon = tested on: DLD-1 colon
OVCAR-5 ovarian = tested on: OVCAR-5 ovarian
UACC-257 melanoma = tested on: UACC-257 melanoma
OVCAR-8 ovarian = tested on: OVCAR-8 ovarian
SNB-19 CNS = tested on: SNB-19 CNS
CAKI-1 renal = tested on: CAKI-1 renal
COLO 205 colon = tested on: COLO 205 colon
A498 renal = tested on: A498 renal
SNB-78 CNS = tested on: SNB-78 CNS
HCT-15 colon = tested on: HCT-15 colon
SW-620 colon = tested on: SW-620 colon
SK-MEL-5 melanoma = tested on: SK-MEL-5 melanoma
KM20L2 colon = tested on: KM20L2 colon
786-0 renal = tested on: 786-0 renal
LOX IMVI melanoma = tested on: LOX IMVI melanoma
DMS 114 small cell lung = tested on: DMS 114 small cell lung
IGROV1 ovarian = tested on: IGROV1 ovarian
HOP-18 NSCLC = tested on: HOP-18 NSCLC
ACHN renal = tested on: ACHN renal
K-562 leukemia = tested on: K-562 leukemia
A549 NSCLC = tested on: A549 NSCLC
SK-MEL-28 melanoma = tested on: SK-MEL-28 melanoma
SF-268 CNS = tested on: SF-268 CNS
XF 498 CNS = tested on: XF 498 CNS
OVCAR-4 ovarian = tested on: OVCAR-4 ovarian
TK-10 renal = tested on: TK-10 renal
M19-MEL melanoma = tested on: M19-MEL melanoma
UACC-62 melanoma = tested on: UACC-62 melanoma
DMS 273 small cell lung = tested on: DMS 273 small cell lung
RPMI-8226 leukemia = tested on: RPMI-8226 leukemia
SF-539 CNS = tested on: SF-539 CNS
HOP-92 NSCLC = tested on: HOP-92 NSCLC
NCI-H460 lung = tested on: NCI-H460 lung
KM12 colon = tested on: KM12 colon
OVCAR-3 ovarian = tested on: OVCAR-3 ovarian
U251 CNS = tested on: U251 CNS
HT29 colon = tested on: HT29 colon
NCI-H23 lung = tested on: NCI-H23 lung
SF-295 CNS = tested on: SF-295 CNS
SK-MEL-2 melanoma = tested on: SK-MEL-2 melanoma
EKVX NSCLC = tested on: EKVX NSCLC
SNB-75 CNS = tested on: SNB-75 CNS
MALME-3M melanoma = tested on: MALME-3M melanoma
SN12C renal = tested on: SN12C renal
RXF 393 renal = tested on: RXF 393 renal
HOP-62 NSCLC = tested on: HOP-62 NSCLC
MDA-N = tested on: MDA-N
SR leukemia = tested on: SR leukemia
UO-31 renal = tested on: UO-31 renal
SK-OV-3 ovarian = tested on: SK-OV-3 ovarian
RXF-631 renal = tested on: RXF-631 renal
CCRF-CEM leukemia = tested on: CCRF-CEM leukemia
NCI-H226 lung = tested on: NCI-H226 lung
MDA-MB-231 breast = tested on: MDA-MB-231 breast
HS 578T breast = tested on: HS 578T breast
T-47D breast = tested on: T-47D breast
MCF7 breast = tested on: MCF7 breast
PC-3 prostate = tested on: PC-3 prostate
NCI/ADR-RES ovarian = tested on: NCI/ADR-RES ovarian
LXFL 529 NSCLC = tested on: LXFL 529 NSCLC
M14 melanoma = tested on: M14 melanoma
DU-145 prostate = tested on: DU-145 prostate
HCC-2998 colon = tested on: HCC-2998 colon
MDA-MB-435 = tested on: MDA-MB-435
NCI-H522 lung = tested on: NCI-H522 lung
BT-549 breast = tested on: BT-549 breast
HL-60(TB) leukemia = tested on: HL-60(TB) leukemia
MOLT-4 leukemia = tested on: MOLT-4 leukemia

For `C[C@@]12CCCC(=O)N1[C@@H](CO)C(c1ccccc1)O2` (stereo partly specified), the TGI (HCT-116 colon) was > 100 µM, the TGI (DLD-1 colon) was > 100 µM and the TGI (OVCAR-5 ovarian) was > 100 µM. For the same molecule, the TGI (UACC-257 melanoma) was > 100 µM, the TGI (OVCAR-8 ovarian) was > 100 µM and the TGI (SNB-19 CNS) was > 100 µM. For the same molecule, the TGI (CAKI-1 renal) was > 100 µM, the TGI (COLO 205 colon) was > 100 µM and the TGI (A498 renal) was > 100 µM. For the same molecule, the TGI (SNB-78 CNS) was > 100 µM, the TGI (HCT-15 colon) was > 100 µM and the TGI (SW-620 colon) was > 100 µM. The TGI (SK-MEL-5 melanoma) was > 100 µM, the TGI (KM20L2 colon) was > 100 µM and the TGI (786-0 renal) was > 100 µM. The TGI (LOX IMVI melanoma) was > 100 µM, the TGI (DMS 114 small cell lung) was > 100 µM and the TGI (IGROV1 ovarian) was > 100 µM. The TGI (HOP-18 NSCLC) was > 100 µM, the TGI (ACHN renal) was > 100 µM and the TGI (K-562 leukemia) was > 100 µM. For the same molecule, the TGI (A549 NSCLC) was > 100 µM, the TGI (SK-MEL-28 melanoma) was > 100 µM and the TGI (SF-268 CNS) was > 100 µM. For the same molecule, the TGI (XF 498 CNS) was > 100 µM, the TGI (OVCAR-4 ovarian) was > 100 µM and the TGI (TK-10 renal) was > 100 µM. For the same molecule, the TGI (M19-MEL melanoma) was > 100 µM, the TGI (UACC-62 melanoma) was > 100 µM and the TGI (DMS 273 small cell lung) was > 100 µM. For the same molecule, the TGI (RPMI-8226 leukemia) was > 100 µM, the TGI (SF-539 CNS) was > 100 µM and the TGI (HOP-92 NSCLC) was > 100 µM. The TGI (NCI-H460 lung) was > 100 µM, the TGI (KM12 colon) was > 100 µM and the TGI (OVCAR-3 ovarian) was > 100 µM. The TGI (U251 CNS) was > 100 µM, the TGI (HT29 colon) was > 100 µM and the TGI (NCI-H23 lung) was > 100 µM. The TGI (SF-295 CNS) was > 100 µM, the TGI (SK-MEL-2 melanoma) was > 100 µM and the TGI (EKVX NSCLC) was > 100 µM. For the same molecule, the TGI (SNB-75 CNS) was > 100 µM, the TGI (MALME-3M melanoma) was > 100 µM and the TGI (SN12C renal) was > 100 µM. For the same molecule, the TGI (RXF 393 renal) was > 100 µM and the TGI (HOP-62 NSCLC) was > 100 µM.

`C/C(=N\Nc1ccccc1)C(CN(C)C)C(c1ccccc1)c1c(O)c2ccccc2oc1=O` (stereo unspecified) was tested, and the TGI (MDA-N) was > 100 µM, the TGI (HCT-116 colon) was > 100 µM and the TGI (OVCAR-5 ovarian) was > 100 µM. The TGI (UACC-257 melanoma) was > 100 µM, the TGI (OVCAR-8 ovarian) was > 100 µM and the TGI (SNB-19 CNS) was > 100 µM. The TGI (SR leukemia) was > 100 µM, the TGI (UO-31 renal) was > 100 µM and the TGI (SK-OV-3 ovarian) was > 100 µM. For the same molecule, the TGI (CAKI-1 renal) was > 100 µM, the TGI (COLO 205 colon) was > 100 µM and the TGI (A498 renal) was > 100 µM. The TGI (RXF-631 renal) was > 100 µM, the TGI (HCT-15 colon) was > 100 µM and the TGI (SW-620 colon) was > 100 µM. For the same molecule, the TGI (CCRF-CEM leukemia) was > 100 µM, the TGI (NCI-H226 lung) was > 100 µM and the TGI (MDA-MB-231 breast) was > 100 µM. For the same molecule, the TGI (HS 578T breast) was > 100 µM, the TGI (SK-MEL-5 melanoma) was > 100 µM and the TGI (KM20L2 colon) was > 100 µM. For the same molecule, the TGI (786-0 renal) was > 100 µM, the TGI (LOX IMVI melanoma) was > 100 µM and the TGI (DMS 114 small cell lung) was > 100 µM. The TGI (IGROV1 ovarian) was > 100 µM, the TGI (ACHN renal) was > 100 µM and the TGI (K-562 leukemia) was > 100 µM. For the same molecule, the TGI (A549 NSCLC) was > 100 µM, the TGI (SK-MEL-28 melanoma) was > 100 µM and the TGI (SF-268 CNS) was > 100 µM. For the same molecule, the TGI (OVCAR-4 ovarian) was > 100 µM, the TGI (TK-10 renal) was > 100 µM and the TGI (M19-MEL melanoma) was > 100 µM. The TGI (UACC-62 melanoma) was > 100 µM, the TGI (RPMI-8226 leukemia) was > 100 µM and the TGI (SF-539 CNS) was > 100 µM. For the same molecule, the TGI (HOP-92 NSCLC) was 97 µM, the TGI (NCI-H460 lung) was > 100 µM and the TGI (T-47D breast) was > 100 µM. The TGI (KM12 colon) was > 100 µM, the TGI (MCF7 breast) was > 100 µM and the TGI (OVCAR-3 ovarian) was > 100 µM. For the same molecule, the TGI (PC-3 prostate) was > 100 µM, the TGI (U251 CNS) was > 100 µM and the TGI (NCI/ADR-RES ovarian) was > 100 µM. For the same molecule, the TGI (LXFL 529 NSCLC) was > 100 µM, the TGI (HT29 colon) was > 100 µM and the TGI (NCI-H23 lung) was > 100 µM. The TGI (SF-295 CNS) was > 100 µM, the TGI (SK-MEL-2 melanoma) was > 100 µM and the TGI (M14 melanoma) was > 100 µM. For the same molecule, the TGI (DU-145 prostate) was > 100 µM, the TGI (EKVX NSCLC) was > 100 µM and the TGI (SNB-75 CNS) was > 100 µM. For the same molecule, the TGI (HCC-2998 colon) was > 100 µM, the TGI (MDA-MB-435) was > 100 µM and the TGI (MALME-3M melanoma) was > 100 µM. For the same molecule, the TGI (SN12C renal) was > 100 µM, the TGI (NCI-H522 lung) was > 100 µM and the TGI (BT-549 breast) was > 100 µM. The TGI (HL-60(TB) leukemia) was > 100 µM, the TGI (RXF 393 renal) was > 100 µM and the TGI (MOLT-4 leukemia) was > 100 µM. For the same molecule, the TGI (HOP-62 NSCLC) was > 100 µM.
